In PMC7821181, “MS Binding Assays for Glycine Transporter 2 (GlyT2) Employing Org25543 as Reporter Ligand” (Chemmedchem, 2020):
pKd: −log10 of the molar value. Values joined by “and” are separate entries in the source; they are usually repeats but may differ in a detail not shown here. Equal values may be shown once. “Also recorded” adds a separate entry of the source.

What was measured:
hGlyT2 = target: T1, hGlyT2 (Homo sapiens, UniProt Q9Y345); experiment: GlyT2 MS Binding Assays: kinetic (dissociation and association) experiments
T1 construct: host or cells: HEK293 cells stably expressing hGlyT2; crude membrane fractions
T1 sequence (Q9Y345 1-797): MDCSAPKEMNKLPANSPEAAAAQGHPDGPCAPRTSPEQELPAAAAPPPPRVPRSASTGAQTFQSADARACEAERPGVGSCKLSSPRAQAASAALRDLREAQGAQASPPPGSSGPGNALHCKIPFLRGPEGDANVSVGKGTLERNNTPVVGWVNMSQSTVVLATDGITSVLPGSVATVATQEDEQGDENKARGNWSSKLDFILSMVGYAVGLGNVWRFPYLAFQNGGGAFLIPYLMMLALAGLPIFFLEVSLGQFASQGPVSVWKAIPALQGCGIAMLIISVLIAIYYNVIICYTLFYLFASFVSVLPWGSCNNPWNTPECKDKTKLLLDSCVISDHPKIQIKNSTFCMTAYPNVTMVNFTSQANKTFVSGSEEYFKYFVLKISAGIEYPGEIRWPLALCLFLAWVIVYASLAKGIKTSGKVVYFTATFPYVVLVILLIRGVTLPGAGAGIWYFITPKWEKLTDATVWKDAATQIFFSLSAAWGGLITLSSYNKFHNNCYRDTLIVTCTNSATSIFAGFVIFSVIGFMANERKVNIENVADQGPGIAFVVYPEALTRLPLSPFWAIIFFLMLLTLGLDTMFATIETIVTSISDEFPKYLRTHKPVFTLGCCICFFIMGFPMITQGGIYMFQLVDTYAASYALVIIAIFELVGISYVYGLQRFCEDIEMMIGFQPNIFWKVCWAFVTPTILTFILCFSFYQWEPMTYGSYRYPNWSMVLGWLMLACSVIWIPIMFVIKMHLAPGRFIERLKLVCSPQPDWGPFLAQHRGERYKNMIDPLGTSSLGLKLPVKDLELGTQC
Experimental: For the determination of the dissociation rate constant of Org25543 the so‐called displacer method was applied. Thus, after the target protein GlyT2 had been incubated with the reporter ligand Org25543 at a defined concentration (final concentration: 10 nM) and the binding allowed to reach equilibrium (1 h) dissociation was initiated by addition of 8 (final concentration: 30 μM). Overall, 12 samples were taken, the first after 15 s and the last after 3 h, and processed as described for competitive binding experiments. The same way nonspecific binding was determined except that the target protein had been subjected to a heat‐shock before. Plotting of specific binding calculated from total and nonspecific binding against time yielded the respective dissociation curves.
Next, for the determination of the association kinetics of Org25543 association experiments had to be performed. By the knowledge of [L] and k off, from k obs as the primary result of such experiments, finally, the derived rate constant k on becomes accessible by using the relation given at Equation 1, the transformed form of which is Equation 2. (1) kobs=kon×L+koff (2) kon=(kobs-koff)/L
For the determination of k obs Org25543 was added to the target protein, to start the association process, which was then stopped at eleven different time points (15 s–2 h), to measure the amount of bound marker at these defined time points. The nonspecific binding was determined for the same time points like for total binding samples but utilizing target material that had been subjected to a heat‐shock before. The concentration of the reporter ligand Org25543 was set to a value of 10 nM. […] For the establishment of association curves specific binding calculated from total binding and nonspecific binding was plotted against time.
Dissociation experiments via displacing Org25543 from GlyT2 with an excess of competitor were performed in 25 mL round bottom flasks made of glass (Duran Wheaton Kimble Life Sciences GmbH, Wertheim, Germany). For determining dissociation rate constants by the displacer approach GlyT2 membrane fractions were pre‐incubated with Org25543 at a nominal concentration of 10 nM at 37 °C in a water bath for 1 h in a total volume of 24.85 mL. The solution and the water bath were stirred constantly with magnetic stir bars at a frequency of ∼500 rpm. After 1 h of incubation dissociation was initiated by adding 150 μL of 8 resulting in […] of 30 μM. After defined time points (15 s–3 h, twelve dissociation time points, samples for each time point were prepared in triplicates) dissociation was terminated via vacuum filtration and the samples were treated the same way as described in Experimental Section MS Binding Assay: General procedure. Nonspecific binding was determined at the same time points as for the dissociation samples but incubating 10 nM Org25543 in the presence of 30 μM 8 and heat‐shocked GlyT2 membrane preparations (triplicate).

GlyT2 = target: T2, GlyT2 (Homo sapiens, UniProt Q9Y345); experiment: preliminary Org25543 saturation experiments in absence or presence of glycine; format: binding; details: for Bmax in relation to control without glycine (100 %) / Kd in relation to control without glycine (100 %): mean ± SD, two experiments
T2 construct: host or cells: HEK293 cells stably expressing hGlyT2; crude membrane fractions
T2 sequence (Q9Y345 1-797): T1 sequence (Q9Y345 1-797)
Experimental: glass fiber, 1.0 µm, 350 µL; Pall Corporation, Port Washington, NY, USA) were washed with water (3 x 200 µL) and methanol (3 x 200 µL) and subsequently pre-incubated for 2 h at room temperature with 0.5 % polyethylenimine (PEI). […]
KCl, 1 mM MgCl2, 1 mM CaCl2, pH 7.5) in polypropylene 96 well plates (1.2 mL well volume, Sarstedt, Nümbrecht, Germany) in total volume of 250 µL at 37 °C in a shaking water bath. After the incubation times for the filters and incubation samples had been expired, PEI was removed from the filters by vacuum filtration and 210 µL aliquots of the incubation samples were transferred on the filters and were removed by vacuum filtration as well. The filters were washed with ammonium ac etate buffer (3 x 200 µL, 154 mM, pH 7.4) and were dried at 50 °C for 1 h. After that the remaining Org25543 on the filters were washed down with acetonitrile (3 x 70 µL) containing [ 2H7]Org25543 (125 pM) and 52.5 µL ammonium bicarbonate buffer (5 mM, pH 7.8) was added to the samples to adjust the sample solvent to the mobile phase (5 mM ammonium bicarbonate buffer ( pH 7.8)/acetonitrile ( 20:80, v/v)). Finally, the samples were subjected to LC-ESI-MS/MS quantification without further sample preparation. […]
Investigating the inhibition mode of glycine in preliminary Org25543 saturation […]
In these preliminary experiments saturation experiments were performed in the same way as it is described in the Material and methods part except that Org25543 and GlyT2 were incubated either in the absence of glycine or in the presence of 2, 20 or 200 mM glycine. The saturation isotherms of a representative experiment are depicted […]
(control) in all experiments and Kd and Bmax values determined in the presence of the […]

COc1cc(C(=O)NCC2(N(C)C)CCCC2)cc(OC)c1OCc1ccccc1 [Org25543, N‐[[1‐(dimethylamino)cyclopentyl]methyl]‐3,5‐dimethoxy‐4‐(phenylmethoxy)benzamide]
pKd (hGlyT2): 8.16
k obs (observed association rate constant) (hGlyT2; Org25543 10 nM, 37 °C, mean±SEM, n=3): 1.72±0.01×10^−2 s^−1 and 1.72×10^−2 s^−1
koff (hGlyT2; Org25543 10 nM, displacement by 30 μM 8, 37 °C, mean±SEM, n=3, read-out: k off (dissociation rate constant)): 0.00707 s⁻¹
kon (hGlyT2; calculated as (k obs−k off)/L, read-out: k on (association rate constant)): 1.01e+06 M⁻¹ s⁻¹
reversibility of binding at GlyT2, in words (hGlyT2; dissociation experiments): fully reversible; also recorded: full reversibility
Bmax in relation to control without glycine (100 %) (GlyT2; 2 mM glycine): 106 ± 13%
Kd in relation to control without glycine (100 %) (GlyT2; 2 mM glycine): 129 ± 24%
Bmax in relation to control without glycine (100 %) (GlyT2; 20 mM glycine): 101 ± 12%
Kd in relation to control without glycine (100 %) (GlyT2; 20 mM glycine): 222 ± 56%
Kd in relation to control without glycine (100 %) (GlyT2; 200 mM glycine): 814 ± 154%
B max (representative preliminary saturation experiment) (GlyT2; in the presence of 2 mM glycine): 9.75 pmol (mg protein)-1
B max (representative preliminary saturation experiment) (GlyT2; in the presence of 20 mM glycine): 9.24 pmol (mg protein)-1
B max (representative preliminary saturation experiment) (GlyT2; in the presence of 200 mM glycine): 8.74 pmol (mg protein)-1
B max (representative preliminary saturation experiment) (GlyT2; without glycine): 8.45 pmol (mg protein)-1
pKd (GlyT2; without glycine, read-out: K d of Org25543 (representative preliminary saturation experiment)): 8.29
